Assay results reported in patent publication US10513534B2, “2′-chloro nucleoside analogs for HCV infection” (priority 2012, dated 2019).
Like-named read-outs stand apart in the source and are kept apart here.

Assays:
[1] = system: HCV genotype 1b replicon; assay: HCV replicon assay (Zluc luciferase); type: cell-based; details: read-out: HCV Replicon EC50
Method in brief: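 Zluc Huh-7 cells with HCV genotype 1b replicon and luciferase reporter treated with 5-fold dilutions (100 μM to 0.0000512 μM final) in duplicate, or at 1 and 10 μM. Luminescence read with ONE-glo; EC50 from dose-response fits, or % inhibition at the fixed concentrations.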

[2] = Cytotoxicity evaluation, CellTiter-Blue Cell Viability Assay; details: human
[3] = Liver triphosphate pharmacokinetics after single oral dose in CD-1 mice; type: in vivo; details: single oral dose 10 mg/kg in PEG 200;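 for Ms Liver TP AUC: pmol·h/g liver normalized to a 1 µmol/kg dose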;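 for Ms Liver TP Cmax: pmol/g liver normalized to a 1 µmol/kg dose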
Description: Internal standard solution was added to the homogenate followed by neutralization with 20% ammonium hydroxide solution and addition of 500 μL 1% formic acid. The tissue samples were extracted by weak anion exchange solid phase extraction (SPE). Post extraction, the eluates were evaporated under nitrogen, followed by reconstitution before injection onto the LC-MS/MS system.

[4] = Plasma nucleoside pharmacokinetics after single oral dose in CD-1 mice; type: in vivo; details: single oral dose 10 mg/kg in PEG 200;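 for Ms Plasma nucleoside AUC: pmol·h/mL plasma normalized to a 1 µmol/kg dose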
Method in brief: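 Mouse plasma was extracted by acetonitrile/0.2% formic acid protein precipitation using 2′-MeG-D3 or tiapride as internal standard. Nucleoside was quantified by positive-ion LC-MS/MS after C18 gradient separation. Calibration spanned 0.500 (LLOQ) to 200 ng/mL.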

[5] = Stability in liver microsomes; type: in vitro ADME; details: human liver microsomes 1.0 mg/mL, 10 μM, NADPH, 60 min
Description: (§1) Stability of test compounds were determined in human liver and intestinal microsomes in duplicate for each matrix. Pooled liver and intestinal microsomal proteins (1.0 mg/mL), suspended in incubation buffer (100 mM potassium phosphate, pH 7.4, 5 mM MgCl2, and 0.1 mM EDTA), were preincubated for 5 min at 37° C. with 10 μM of a test compound from a 10 mM stock solution in DMSO (final DMSO concentration was 0.1%); the reaction was initiated by the addition of NADPH (3 mM final concentration). At specific times (0 and 60 min), 0.1 mL samples were taken and the reaction terminated by the addition of 4 volumes of stop solution (acetonitrile with 500 ng/mL carbutamide as an internal standard). The samples were vortexed for 30 sec and then centrifuged at 16000×g for 10 min. 100 μL of supernatants were transferred to 96 deep-well plates preloaded with 100 μL distilled water and analyzed after mixing by LC-MS/MS. The MS peak area ratio of the test compound versus the internal standard was calculated and percent unchanged test compound over 60 minutes was calculated using this ratio.

[6] = system: Huh-7 cells; assay: Release of active metabolite in Huh-7 cells; type: in vitro ADME
Description: Huh-7 cells were plated in 1 mL culture medium (DMEM, containing glucose, L-glutamine and sodium pyruvate, 10% FBS, 100 IU/mL penicillin, 100 μg/mL streptomycin, 2 mM GlutaMAX, 1% MEM non-essential amino acids) at the concentration 0.8, 0.4 and 0.2 million cells per well on 6 well plates for 24, 48 and 72 hr treatment, respectively. Plated cells were incubated overnight at 37° C. in an incubator.
The following morning test compound was diluted to 20 μM from a stock solution in DMSO in fresh culture medium pre-warmed to 37° C. and 1 mL of the solution/well was added to cells. A final medium volume per well was 2.0 mL, test compound concentration in well was 10 μM and final DMSO concentration was 0.1%.
After 24, 48 or 72 hr, the medium was carefully removed and cell monolayers were washed twice with 2 mL ice-cold PBS per well. Following the last wash, all PBS was carefully removed and 1.0 mL of extraction solution (ice-cold 70% methanol) added. The plate was tightly covered with Parafilm, plastic plate cover and Parafilm again and an intracellular content was extracted at −20° C. for 24 hr.
After 24 hr the extracts were transferred into polypropylene microfuge tubes and dry on a refrigerated centrivap concentrator. Dry residues were reconstituted in 250 μL of HPLC-grade water and centrifuged at 16,000×g for 10 min. Aliquots (100 μL each) of the supernatants were transferred into a 96 well plate and internal standard (4 ng/mL final concentration) was added as the internal standard (IS) for LC-MS/MS analysis.

[7] = Stability in intestinal microsomes; type: in vitro ADME; details: human intestinal microsomes 1.0 mg/mL, 10 μM, NADPH, 60 min
Description: as §1

[8] = in vitro; details: human
[9] = system: fresh mouse hepatocytes; assay: Release of active metabolite in fresh mouse hepatocytes; type: in vitro ADME; details: 10 μM
Description: Plates of fresh human and mouse hepatocytes were obtained on ice. The medium was removed and replaced with hepatocyte culture medium (William's E supplemented with penicillin-streptomycin, 1% L-glutamine, 1% insulin-transferrin-selenium and 0.1 μM Dexamethasone (Invitrogen) or with Invitro GRO HI medium complemented with Torpedo antibiotics (Celsis)). Cells were left overnight in an incubator at 37° C. to acclimatize to culture and the medium.
Hepatocyte incubations were conducted at a final volume of 0.5 mL hepatocyte culture medium/well (0.8 million cells/well for human and 0.5 million cells/well for mouse; 12 well plate no overlay, collagen coat). Culture medium from overnight incubation of cells was removed and replaced with fresh medium, pre-warmed to 37° C., containing 10 μM of test compound from a stock solution in DMSO (final DMSO concentration was 0.1%). At each specific time point, incubation medium was removed and cell monolayers were carefully washed two times with ice-cold PBS. Following the last wash, all PBS was carefully removed and 1.0 mL of extraction solution (ice-cold 70% methanol/30% water) added. Cells were scraped off and suspended in the extraction solution, transferred to 2 mL polypropylene microfuge tubes and intracellular contents extracted overnight at −20° C.
After the overnight treatment the cellular extracts were prepared by centrifugation at 16,000×g for 10 min to remove cellular debris. The remaining sample was then dried using a refrigerated centrivap concentrator. Dry extracts were reconstituted in 1000 μL of HPLC-grade water and centrifuged at 16,000×g for 10 min. Aliquots (100 μL each) of the supernatant were transferred into a 96 well plate and internal standard (4 ng/mL final concentration) was added as the internal standard (IS) for LC-MS/MS analysis.
The incubation time points were 6, 24 and 48 hours for human hepatocytes and 1, 4, 8, 12 and 24 hours for mouse hepatocytes.

[10] = Liver triphosphate pharmacokinetics after single oral dose in cynomolgus monkeys; type: in vivo
Description: (§2) For each compound, a single oral dose at 10 mg/kg in PEG 200 (dose volume 3 mL/kg) was administered to cynomolgus monkeys. Untreated animals were used for the collection of control liver. Plasma samples were collected at 0.5, 1, 2, 4, 6, 8, 12 and 24 hours for compound 37, diastereomer 2.
Liver samples were analyzed for the relevant nucleoside triphosphate by LC-MS/MS. […] Appropriate internal standard solution was added to the homogenate followed by neutralization with 20% ammonium hydroxide solution and addition of 500 μL 1% formic acid. The tissue samples were extracted by weak anion exchange solid phase extraction (SPE). Post extraction, the eluates were evaporated under nitrogen, followed by reconstitution before injection onto the LC-MS/MS system.

[11] = Plasma prodrug and nucleoside pharmacokinetics after single oral dose in cynomolgus monkeys; type: in vivo; details: single oral 10 mg/kg
Description: as §2
Plasma samples were analyzed for the prodrug and nucleoside by LC-MS/MS. For protein precipitation and extraction, each plasma sample (50 μL) was treated with 500 μL of 0.2% formic acid in acetonitrile and 20 μL of an appropriate internal standard working solution. After vortexing and centrifugation, 500 µL of the sample extracts were transferred to a new plate, dried under N2 at ˜28° C. and reconstituted with 75 μL of 0.2% FA in water. The extracts were chromatographed on an Aquasil C18 column using a gradient system of 0.2% formic acid in water and acetonitrile. The analytes were detected and quantified by tandem mass spectrometry in positive ion mode on an MDS Sciex API4000 equipped with a Turbo Ionspray® interface.

[12] = system: Zluc cells; assay: Cytotoxicity evaluation, CellTiter-Blue Cell Viability Assay; details: Zluc cells, CellTiter-Blue
[13] = single oral 10 mg/kg, normalized to 1 μmol/kg dose

Row | Compound | EC50 ([1]; Hepatitis C virus, 72 h) [µM] | CC50 [2] [µM] | EC50 ([1]; Zluc cells, 72 hours) [µM] | Ms Liver TP AUC [3] | Ms Liver TP Cmax [3] | Ms Plasma nucleoside AUC [4] | Ms Plasma nucleoside Cmax [4] | HLM (1 hr) stability (percent remaining) [5] | HIM (1 hr) stability (percent remaining) [7] | MsH AUC [9] | MsH Cmax [9] | further results
1 | CCOC(=O)COP(=O)(OC[C@H]1O[C@@H](n2ccc(=O)[nH]c2=O)[C@](C)(Cl)[C@@H]1O)Oc1ccccc1 (mixture of isomers) [Compound 72 Mixture of P-Diastereoisomers] | > 10 | > 50 | – | – | – | – | – | – | – | – | – | –
2 | CC(C)OC(=O)[C@H](C)NP(=O)(OC[C@H]1O[C@@H](n2ccc(=O)[nH]c2=O)[C@](C)(Cl)[C@@H]1O)Oc1ccccc1 (single isomer, unassigned) [Compound 40ii Diastereomer 1] | – | – | 1 to 10 | +++ (500 < +++ ≤ 1500) | +++ (50 < +++ ≤ 100) | +++ (500 < +++ ≤ 1500) | +++ (50 < +++ ≤ 100) | + (+ ≤ 25%) | +++ (50% < +++ ≤ 75%) | – | – | Huh-7 TP AUC ([6]; 10 μM): ++++ (1500 < ++++); Huh-7 TP Cmax ([6]; 10 μM test compound): ++++ (100 < ++++); Huh-7 TP (24 hr) ([6]; 10 μM, 24 hr): ++ (15 < ++ ≤ 50); Huh-7 TP (48 hr) ([6]; 10 μM, 48 hr): +++ (50 < +++ ≤ 100); Huh-7 TP (72 hr) ([6]; 10 μM, 72 hr): ++++ (100 < ++++); CC50 [8]: > 50 µM
3 | CCOC(=O)COP(=O)(OC[C@H]1O[C@@H](n2ccc(=O)[nH]c2=O)[C@](C)(Cl)[C@@H]1O)Oc1ccccc1 (single isomer, unassigned) [Compound 72 Diastereomer 1] | > 10 | > 50 | – | – | – | – | – | – | – | – | – | –
4 | CC(C)OC(=O)[C@@H](C)NP(=O)(OC[C@H]1O[C@@H](n2ccc(=O)[nH]c2=O)[C@](C)(Cl)[C@@H]1O)Oc1ccccc1 (single isomer, unassigned; diastereomer 2) [Compound 40i Diastereomer 2] | – | – | – | ++++ (1500 < ++++) | ++++ (100 < ++++) | +++ (500 < +++ ≤ 1500) | +++ (50 < +++ ≤ 100) | +++ (50% < +++ ≤ 75%) | ++++ (75% < ++++) | +++ (500 < +++ ≤ 1500) | +++ (50 < +++ ≤ 100) | –
5 | CC(C)OC(=O)[C@@H](C)NP(=O)(OC[C@H]1O[C@@H](n2ccc(=O)[nH]c2=O)[C@](C)(Cl)[C@@H]1O)Oc1ccccc1 (single isomer, unassigned; diastereomer 1) [Compound 40i Diastereomer 1] | – | – | > 10 | – | – | +++ (500 < +++ ≤ 1500) | +++ (50 < +++ ≤ 100) | + (+ ≤ 25%) | +++ (50% < +++ ≤ 75%) | ++++ (1500 < ++++) | ++++ (100 < ++++) | Nucleoside triphosphate in Liver C6 ([10]; 6 hours post dose, 10 mg/kg oral, normalized to 1 μmol/kg dose): ++++ (100 < ++++); Nucleoside triphosphate in Liver Tmax ([10]; single oral 10 mg/kg): 6 h; Nucleoside triphosphate in Liver AUC0-24 [10, 13]: ++++ (1500 < ++++); Nucleoside triphosphate in Liver Cmax [10, 13]: ++++ (100 < ++++); Plasma nucleoside Tmax [11]: 6 h; Plasma prodrug Tmax [11]: 2 h; Plasma nucleoside AUC0-24 ([11]; normalized to 1 μmol/kg dose): ++ (150 < ++ ≤ 500); Plasma prodrug AUC0-24 ([11]; normalized to 1 μmol/kg dose): + (+ ≤ 150); Cmax ([11]; normalized to 1 μmol/kg dose, read-out: Plasma nucleoside Cmax): 15 to 50 nM; Cmax ([11]; normalized to 1 μmol/kg dose, read-out: Plasma prodrug Cmax): ≤ 15 nM; CC50 [12]: > 50 µM
